The values below come from publication PMC9532562 (Acta Pharmaceutica Sinica. B, 2022).

For one series, the target named is HDAC1 (Homo sapiens, UniProt Q13547). Briefly: HDAC enzyme inhibition assay. It is filed as biochemical.
The target in a further series is T1, HDAC8 (Homo sapiens, UniProt Q9BY41).
T1 sequence (Q9BY41 1-377): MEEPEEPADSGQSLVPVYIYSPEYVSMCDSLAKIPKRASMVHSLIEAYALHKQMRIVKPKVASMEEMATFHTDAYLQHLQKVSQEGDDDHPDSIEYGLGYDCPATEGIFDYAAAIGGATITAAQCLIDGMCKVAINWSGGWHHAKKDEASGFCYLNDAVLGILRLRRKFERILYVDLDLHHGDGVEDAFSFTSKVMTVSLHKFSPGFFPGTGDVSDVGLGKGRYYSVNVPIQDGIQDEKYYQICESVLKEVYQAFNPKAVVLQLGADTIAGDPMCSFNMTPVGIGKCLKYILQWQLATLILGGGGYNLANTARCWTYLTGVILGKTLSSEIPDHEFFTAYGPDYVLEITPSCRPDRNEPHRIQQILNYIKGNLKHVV
Briefly: HDAC enzyme inhibition assay. In kind it is biochemical.

A further series has as its target T2, HDAC10 (Homo sapiens, UniProt Q969S8).
T2 sequence (Q969S8 1-669): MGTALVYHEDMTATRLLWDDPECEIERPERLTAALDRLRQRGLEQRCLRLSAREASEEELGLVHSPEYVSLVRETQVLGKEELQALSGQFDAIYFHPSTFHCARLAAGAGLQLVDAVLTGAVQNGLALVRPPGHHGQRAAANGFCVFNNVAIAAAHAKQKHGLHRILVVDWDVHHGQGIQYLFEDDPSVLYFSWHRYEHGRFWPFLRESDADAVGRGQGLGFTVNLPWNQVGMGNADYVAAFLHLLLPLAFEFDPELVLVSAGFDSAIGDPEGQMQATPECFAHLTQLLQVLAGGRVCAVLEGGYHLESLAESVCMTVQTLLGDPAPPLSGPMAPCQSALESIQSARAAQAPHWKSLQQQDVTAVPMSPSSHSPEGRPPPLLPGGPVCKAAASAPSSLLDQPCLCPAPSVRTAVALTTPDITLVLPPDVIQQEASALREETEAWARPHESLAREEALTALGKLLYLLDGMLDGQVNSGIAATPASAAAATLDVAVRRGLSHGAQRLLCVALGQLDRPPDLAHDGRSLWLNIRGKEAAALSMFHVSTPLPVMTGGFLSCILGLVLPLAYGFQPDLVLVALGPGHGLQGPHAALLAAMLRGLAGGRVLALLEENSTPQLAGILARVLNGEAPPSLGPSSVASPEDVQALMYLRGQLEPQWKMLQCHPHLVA
Briefly: HDAC enzyme inhibition assay. It is filed as biochemical.

Series [1] is described as follows: LogD determination, shake flask method. The note with it: n-octanol/PBS, pH 7.4. In kind it is physicochemical.
A further series can be described thus: Hepatocyte stability. In kind it is in vitro ADME. The note with it: human, hepatocytes.
In a further series the target is T3, CYP1A2 (Homo sapiens, UniProt P05177).
T3 sequence (P05177 1-516): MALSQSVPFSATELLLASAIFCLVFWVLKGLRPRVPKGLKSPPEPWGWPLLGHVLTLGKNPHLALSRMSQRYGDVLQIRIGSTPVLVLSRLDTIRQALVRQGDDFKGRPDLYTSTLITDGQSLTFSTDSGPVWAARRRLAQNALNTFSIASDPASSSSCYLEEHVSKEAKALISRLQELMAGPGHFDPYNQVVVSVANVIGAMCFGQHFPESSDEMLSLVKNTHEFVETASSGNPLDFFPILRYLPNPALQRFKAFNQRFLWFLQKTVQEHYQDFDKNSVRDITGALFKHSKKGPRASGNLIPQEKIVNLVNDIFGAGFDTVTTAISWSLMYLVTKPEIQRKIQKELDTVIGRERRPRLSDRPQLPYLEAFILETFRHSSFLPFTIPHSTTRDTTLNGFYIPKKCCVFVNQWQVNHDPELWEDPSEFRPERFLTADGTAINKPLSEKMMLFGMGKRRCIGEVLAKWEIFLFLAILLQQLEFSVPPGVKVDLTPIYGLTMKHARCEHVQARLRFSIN
Briefly: CYP inhibition assay, pooled human liver microsomes. In kind it is in vitro ADME. Particulars: probe phenacetin.

Another series addresses CYP2C9 (Homo sapiens, UniProt P11712). The description is as above. The note with it: probe diclofenac. It is filed as in vitro ADME.
Another series concerns the target CYP2C19 (Homo sapiens, UniProt P33261). The description is as above. In kind it is in vitro ADME. The note with it: probe S-mephenytoin.
The next series has as its target CYP2D6 (Homo sapiens, UniProt P10635). The series is described as above. The note with it: probe dextromethorphan. It is filed as in vitro ADME.
A further series deals with CYP3A4 (Homo sapiens, UniProt P08684). The description is as above. In kind it is in vitro ADME. The note with it: probe testosterone.
The next series can be described thus: Plasma protein binding. It is filed as in vitro ADME. The note with it: human.
Series [2] is described as follows: In vivo brain/plasma PK studies. Also noted: species or system C57BL/6 mice. Particulars: C57BL/6, mouse, ip, 1 mg/kg.

A value given as a limit tells only on which side of the number the result lay.

HDAC1, sequence (Q13547 whole entry): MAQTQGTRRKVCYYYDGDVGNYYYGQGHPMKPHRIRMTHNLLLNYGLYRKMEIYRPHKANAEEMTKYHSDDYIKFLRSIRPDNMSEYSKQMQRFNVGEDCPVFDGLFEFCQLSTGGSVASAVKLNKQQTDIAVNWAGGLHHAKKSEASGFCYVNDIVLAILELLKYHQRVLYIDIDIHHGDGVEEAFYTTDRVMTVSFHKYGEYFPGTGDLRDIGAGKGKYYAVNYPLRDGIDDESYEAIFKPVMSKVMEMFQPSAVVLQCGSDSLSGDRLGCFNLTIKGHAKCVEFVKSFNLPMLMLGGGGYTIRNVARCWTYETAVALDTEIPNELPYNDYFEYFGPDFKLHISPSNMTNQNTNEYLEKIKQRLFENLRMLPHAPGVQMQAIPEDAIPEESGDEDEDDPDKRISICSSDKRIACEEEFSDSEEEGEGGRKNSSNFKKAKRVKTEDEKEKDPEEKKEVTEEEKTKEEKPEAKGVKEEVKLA
CYP2C9, sequence (P11712 whole entry): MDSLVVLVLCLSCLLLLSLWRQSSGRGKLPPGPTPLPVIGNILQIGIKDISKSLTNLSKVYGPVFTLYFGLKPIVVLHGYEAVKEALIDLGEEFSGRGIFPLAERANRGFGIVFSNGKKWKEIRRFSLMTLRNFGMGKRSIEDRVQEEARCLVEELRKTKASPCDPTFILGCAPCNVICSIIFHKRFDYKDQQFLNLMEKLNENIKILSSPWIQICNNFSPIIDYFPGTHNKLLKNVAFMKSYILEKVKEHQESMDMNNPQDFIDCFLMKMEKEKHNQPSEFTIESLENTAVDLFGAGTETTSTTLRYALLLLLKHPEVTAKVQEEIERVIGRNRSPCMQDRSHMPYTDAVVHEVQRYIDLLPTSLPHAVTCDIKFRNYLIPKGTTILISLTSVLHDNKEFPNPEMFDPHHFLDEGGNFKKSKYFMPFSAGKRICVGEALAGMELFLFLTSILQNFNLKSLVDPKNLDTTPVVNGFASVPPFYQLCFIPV
CYP3A4, sequence (P08684 whole entry): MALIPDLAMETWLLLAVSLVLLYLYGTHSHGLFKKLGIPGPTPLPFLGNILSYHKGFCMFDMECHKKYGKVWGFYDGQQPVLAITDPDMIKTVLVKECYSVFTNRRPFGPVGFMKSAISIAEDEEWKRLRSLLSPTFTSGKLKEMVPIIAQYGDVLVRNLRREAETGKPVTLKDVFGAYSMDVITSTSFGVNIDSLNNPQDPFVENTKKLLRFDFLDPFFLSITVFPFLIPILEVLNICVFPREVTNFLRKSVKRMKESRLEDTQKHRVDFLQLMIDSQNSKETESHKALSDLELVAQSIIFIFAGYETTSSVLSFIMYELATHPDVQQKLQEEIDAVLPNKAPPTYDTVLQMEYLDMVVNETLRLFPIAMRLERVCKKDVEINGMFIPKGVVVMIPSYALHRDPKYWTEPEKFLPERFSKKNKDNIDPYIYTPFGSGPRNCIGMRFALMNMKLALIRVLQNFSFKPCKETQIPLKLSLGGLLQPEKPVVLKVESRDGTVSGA
CYP2C19, sequence (P33261 whole entry): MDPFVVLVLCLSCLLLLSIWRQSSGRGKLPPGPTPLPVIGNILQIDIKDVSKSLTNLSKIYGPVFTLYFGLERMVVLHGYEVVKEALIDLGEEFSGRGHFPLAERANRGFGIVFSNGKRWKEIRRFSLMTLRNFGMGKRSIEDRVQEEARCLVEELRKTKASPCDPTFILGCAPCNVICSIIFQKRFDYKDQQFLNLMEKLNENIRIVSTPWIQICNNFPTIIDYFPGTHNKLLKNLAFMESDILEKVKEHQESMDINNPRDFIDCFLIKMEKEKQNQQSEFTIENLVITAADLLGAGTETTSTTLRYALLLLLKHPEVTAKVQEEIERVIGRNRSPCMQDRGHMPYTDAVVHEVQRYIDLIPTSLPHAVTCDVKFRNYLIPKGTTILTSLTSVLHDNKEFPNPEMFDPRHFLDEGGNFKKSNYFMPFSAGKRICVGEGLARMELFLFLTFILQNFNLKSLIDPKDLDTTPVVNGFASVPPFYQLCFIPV
CYP2D6, sequence (P10635 whole entry): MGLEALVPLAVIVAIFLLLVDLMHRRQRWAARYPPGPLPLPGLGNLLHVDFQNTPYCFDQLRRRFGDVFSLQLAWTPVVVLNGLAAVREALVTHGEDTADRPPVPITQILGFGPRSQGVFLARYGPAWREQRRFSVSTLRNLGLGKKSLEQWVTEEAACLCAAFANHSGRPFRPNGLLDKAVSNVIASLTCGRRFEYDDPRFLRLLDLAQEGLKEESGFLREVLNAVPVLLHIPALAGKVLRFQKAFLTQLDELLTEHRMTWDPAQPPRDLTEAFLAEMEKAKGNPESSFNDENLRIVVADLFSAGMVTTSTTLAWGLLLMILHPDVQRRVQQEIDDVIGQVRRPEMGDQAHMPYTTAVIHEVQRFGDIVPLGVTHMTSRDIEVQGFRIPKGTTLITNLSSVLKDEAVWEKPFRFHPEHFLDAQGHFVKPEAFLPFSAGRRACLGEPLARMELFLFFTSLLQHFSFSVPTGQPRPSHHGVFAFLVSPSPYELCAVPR

With `COc1cc(C(=O)NO)ccc1CN1CCCCc2ccccc21` [15a, N-Hydroxy-3-methoxy-4-((2,3,4,5-tetrahydro-1H-benzo[b]azepin-1-yl)methyl)benzamide], the IC50 against HDAC1, against HDAC8 and on HDAC10 was more than 10 µM each time.
`O=C(NO)c1ccc(CN2CCCCc3ccccc32)c(F)c1` [15c, 3-Fluoro-N-hydroxy-4-((2,3,4,5-tetrahydro-1H-benzo[b]azepin-1-yl)methyl)benzamide]: the results for the half-maximal inhibitory concentration (IC50) against HDAC1, at HDAC8 and at HDAC10 were 7.82 µM, 1.68 µM and 8.96 µM, respectively. This compound also gave a logD at 1 h in [1] of 3.4. The compound further registered a half-life at 5 μM in the series “Hepatocyte stability” of 32.4 min. Further, the inhibition at 10 min, 10 μmol/L against CYP1A2 amounted to 36.8%; on CYP2C9 it was 34.8%; against CYP2D6 it was 36.3%; at CYP3A4 it was 89%. The same compound yielded an inhibition at 25 min, 10 μmol/L at CYP2C19 of 54%. The compound further had a fraction unbound in “Plasma protein binding” of 0.006. Besides, in [2] (brain and plasma, Brain/plasma ratio, C57BL/6 mice, 4 h), the Kp at 4 h stood at 2.3. Besides, the concentration at 0.5 h in series [2] (brain) was 48.5 ng/mL; in [2] (plasma) it was 1.32 ng/mL. Further, the concentration at 1 h in series [2] (brain) is 11.5 ng/mL; in series [2] (plasma), 0.72 ng/mL. For the same compound, the concentration at 4 h worked out at 0.82 ng/mL in [2] (brain) and 0.35 ng/mL in series [2] (plasma).
On to `O=C(NO)c1ccc(CN2CCCCc3ccccc32)cc1F` [15d, 2-Fluoro-N-hydroxy-4-((2,3,4,5-tetrahydro-1H-benzo[b]azepin-1-yl)methyl)benzamide], for which the values for the IC50 on HDAC1, on HDAC8 and against HDAC10 were more than 10 µM, 9.11 µM and more than 10 µM, respectively.
